Measured values: patent publication US12655116B2, “Substituted isophthalic acid diamides” (Bayer Aktiengesellschaft, priority 2020, dated 2026)

What was measured:
POLCO = test: Pre-emergence herbicidal action against POLCO; type: in vivo, Polygonum convolvulus; details: dosage 80 g/ha
In short: (§1)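 Greenhouse pots of sandy loam held seeds covered with soil, onto which the compound was applied before emergence. An aqueous suspension or emulsion of WP or EC was used at 600 to 800 l/ha with 0.2% wetting agent. Percent damage was judged visually at 3 weeks.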

PHBPU [1] = test: Post-emergence herbicidal action against PHBPU; type: in vivo, Pharbitis purpurea; details: dosage 20 g/ha
In short: (§2)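 Foliar application at one-leaf stage of formulated test compounds, aqueous spray at 600–800 l/ha with 0.2% wetting agent. Greenhouse, optimal conditions, ~3 weeks; damage scored visually in % relative to untreated plants.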

AMARE [2] = test: Pre-emergence herbicidal action against AMARE; type: in vivo, Amaranthus retroflexus
In short: as §1

DIGSA [3] = test: Post-emergence herbicidal action against DIGSA; type: in vivo, Digitaria sanguinalis
In short: as §2

SETVI [4] = test: Pre-emergence herbicidal action against SETVI; type: in vivo, Setaria viridis
In short: as §1

ALOMY [5] = test: Post-emergence herbicidal action against ALOMY; type: in vivo, Alopecurus myosuroides; details: dosage 20 g/ha, visual assessment about 3 weeks after treatment vs untreated controls
In short: as §2

AVEFA = test: Pre-emergence herbicidal action against AVEFA; type: in vivo, Avena fatua; details: 80 g/ha, pre-emergence
In short: as §1

MATIN [6] = test: Post-emergence herbicidal action against MATIN; type: in vivo, Matricaria inodora
In short: as §2

ECHCG [7] = test: Pre-emergence herbicidal action against ECHCG; type: in vivo, Echinochloa crus-galli; details: 80 g/ha
In short: as §1

VERPE [8] = test: Post-emergence herbicidal action against VERPE; type: in vivo, Veronica persica
In short: as §2

PHBPU [9] = test: Pre-emergence herbicidal action against PHBPU; type: in vivo, Pharbitis purpurea; details: dosage 80 g/ha
In short: as §1

ECHCG [10] = test: Post-emergence herbicidal action against ECHCG; type: in vivo, Echinochloa crus-galli; details: dosage 20 g/ha
In short: as §2

VIOTR [11] = test: Pre-emergence herbicidal action against VIOTR; type: in vivo, Viola tricolor
In short: as §1

ABUTH [12] = test: Pre-emergence herbicidal action against ABUTH; type: in vivo, Abutilon theophrasti
In short: as §1

ABUTH [13] = test: Post-emergence herbicidal action against ABUTH; type: in vivo, Abutilon theophrasti; details: dosage 20 g/ha, visual assessment about 3 weeks after treatment vs untreated controls
In short: as §2

MATIN [14] = test: Pre-emergence herbicidal action against MATIN; type: in vivo, Matricaria inodora
In short: as §1

ALOMY [15] = test: Pre-emergence herbicidal action against ALOMY; type: in vivo, Alopecurus myosuroides; details: pre-emergence
In short: as §1

DIGSA [16] = test: Pre-emergence herbicidal action against DIGSA; type: in vivo, Digitaria sanguinalis
In short: as §1

VERPE [17] = test: Pre-emergence herbicidal action against VERPE; type: in vivo, Veronica persica
In short: as §1

AMARE [18] = test: Post-emergence herbicidal action against AMARE; type: in vivo, Amaranthus retroflexus; details: 20 g/ha, visual assessment about 3 weeks after treatment, 100% = plants have died, 0% = like control plants
In short: as §2

VIOTR [19] = test: Post-emergence herbicidal action against VIOTR; type: in vivo, Viola tricolor; details: Viola tricolor, 504 h
In short: as §2

SETVI [20] = test: Post-emergence herbicidal action against SETVI; type: in vivo, Setaria viridis; details: Setaria viridis, 504 h
In short: as §2

[21] = 80 g/ha, scored visually after 3 weeks vs untreated controls (100% = plants have died, 0% = like control plants)
[22] = Tripleurospermum inodorum, 504 h, dosage 20 g/ha

## CC(NC(=O)c1c(C(F)F)ccc(C(=O)Nc2nnnn2C)c1Br)C1CC1 (stereo not drawn) [Example 1-340]
POLCO
  Pre-emergence action against POLCO in %: 90%
PHBPU [1]
  Post-emergence action against PHBPU in %: 90%
AMARE [2]; 20 g/ha, scored visually after 3 weeks vs untreated controls, 100% = plants have died, 0% = like control plants
  Pre-emergence action against AMARE in %: 100%
AMARE [2]; [21]
  Pre-emergence action against AMARE in %: 100%
DIGSA [3]; 20 g/ha
  Post-emergence action against DIGSA: 90%
SETVI [4]; dosage 20 g/ha
  Pre-emergence action against SETVI in %: 90%
SETVI [4]; dosage 80 g/ha
  Pre-emergence action against SETVI in %: 100%
ALOMY [5]
  Post-emergence action against ALOMY in %: 80%
AVEFA
  Pre-emergence action against AVEFA in %: 80%
MATIN [6]; dosage 20 g/ha
  Post-emergence action against MATIN in %: 80%
ECHCG [7]
  Pre-emergence action against ECHCG in %: 100%
VERPE [8]; 20 g/ha
  Post-emergence action against VERPE in %: 80%
PHBPU [9]
  Pre-emergence action against PHBPU in %: 90%
ECHCG [10]
  Post-emergence action against ECHCG in %: 90%
VIOTR [11]; dosage 20 g/ha
  Pre-emergence action against VIOTR in %: 100%
VIOTR [11]; dosage 80 g/ha
  Pre-emergence action against VIOTR in %: 100%
ABUTH [12]; [21]
  Pre-emergence action against ABUTH (herbicidal activity): 100%
ABUTH [12]; dosage 20 g/ha, scored visually after 3 weeks vs untreated controls, 100% = plants have died, 0% = like control plants
  Pre-emergence action against ABUTH (herbicidal activity in percent): 100%
ABUTH [13]
  Post-emergence action against ABUTH in %: 80%
MATIN [14]; dosage 20 g/ha
  Pre-emergence action against MATIN in %: 100%
MATIN [14]; dosage 80 g/ha
  Pre-emergence action against MATIN in %: 100%
ALOMY [15]; [21]
  Pre-emergence action against ALOMY (herbicidal activity): 90%
DIGSA [16]; dosage 20 g/ha
  Pre-emergence action against DIGSA in %: 100%
DIGSA [16]; dosage 80 g/ha
  Pre-emergence action against DIGSA in %: 100%
VERPE [17]; dosage 20 g/ha
  Pre-emergence action against VERPE in %: 100%
VERPE [17]; dosage 80 g/ha
  Pre-emergence action against VERPE in %: 100%
AMARE [18]
  Post-emergence action at 20 g/ha against AMARE in %: 90%

## CCn1nnnc1NC(=O)c1ccc(C(F)(F)F)c(C(=O)NC)c1Br [Example 2-207]
POLCO; Fallopia convolvulus, 504 h
  pest or weed control at 80 g/ha: 90%
PHBPU [1]; Ipomoea purpurea, 504 h
  pest or weed control at 20 g/ha: 80%
AMARE [2]; Amaranthus retroflexus, 504 h, 20 g/ha, scored visually after 3 weeks vs untreated controls, 100% = plants have died, 0% = like control plants
  pest or weed control at 20 g/ha: 100%
AMARE [2]; Amaranthus retroflexus, 504 h, 80 g/ha, scored visually after 3 weeks vs untreated controls, 100% = plants have died, 0% = like control plants
  pest or weed control at 80 g/ha: 100%
VIOTR [19]; 5 g/ha
  pest or weed control at 5 g/ha: 100%
VIOTR [19]; 20 g/ha
  pest or weed control at 20 g/ha: 100%
DIGSA [3]; Digitaria sanguinalis, 504 h, 5 g/ha
  pest or weed control at 5 g/ha: 80%
DIGSA [3]; Digitaria sanguinalis, 504 h, 20 g/ha
  pest or weed control at 20 g/ha: 100%
SETVI [4]; Setaria viridis, 504 h, dosage 20 g/ha
  pest or weed control at 20 g/ha: 100%
SETVI [4]; Setaria viridis, 504 h, dosage 80 g/ha
  pest or weed control at 80 g/ha: 100%
ALOMY [5]; Alopecurus myosuroides, 504 h
  pest or weed control at 20 g/ha: 90%
AVEFA; Avena fatua, 504 h
  pest or weed control at 80 g/ha: 90%
MATIN [6]; Tripleurospermum inodorum, 504 h, dosage 5 g/ha
  pest or weed control at 5 g/ha: 80%
MATIN [6]; [22]
  pest or weed control at 20 g/ha: 90%
ECHCG [7]; Echinochloa crus-galli, 504 h
  pest or weed control at 80 g/ha: 100%
VERPE [8]; Veronica persica, 504 h, 5 g/ha
  pest or weed control at 5 g/ha: 80%
VERPE [8]; Veronica persica, 504 h, 20 g/ha
  pest or weed control at 20 g/ha: 90%
SETVI [20]; dosage 5 g/ha
  pest or weed control at 5 g/ha: 90%
SETVI [20]; dosage 20 g/ha
  pest or weed control at 20 g/ha: 100%
PHBPU [9]; Ipomoea purpurea, 504 h
  pest or weed control at 80 g/ha: 80%
VIOTR [11]; Viola tricolor, 504 h, dosage 20 g/ha
  pest or weed control at 20 g/ha: 90%
VIOTR [11]; Viola tricolor, 504 h, dosage 80 g/ha
  pest or weed control at 80 g/ha: 100%
ABUTH [12]; Abutilon theophrasti, 504 h, 80 g/ha, scored visually after 3 weeks vs untreated controls (100% = plants have died, 0% = like control plants)
  pest or weed control at 80 g/ha: 100%
ABUTH [12]; Abutilon theophrasti, 504 h, dosage 20 g/ha, scored visually after 3 weeks vs untreated controls, 100% = plants have died, 0% = like control plants, read-out: Pre-emergence action against ABUTH (herbicidal activity in percent)
  pest or weed control at 20 g/ha: 100%
ABUTH [13]; Abutilon theophrasti, 504 h
  pest or weed control at 20 g/ha: 90%
MATIN [14]; [22]
  pest or weed control at 20 g/ha: 90%
MATIN [14]; Tripleurospermum inodorum, 504 h, dosage 80 g/ha
  pest or weed control at 80 g/ha: 100%
ALOMY [15]; Alopecurus myosuroides, 504 h, 80 g/ha, scored visually after 3 weeks vs untreated controls (100% = plants have died, 0% = like control plants)
  pest or weed control at 80 g/ha: 90%
ALOMY [15]; Alopecurus myosuroides, 504 h, 20 g/ha, scored visually after 3 weeks, 100% = plants have died, 0% = like control plants
  pest or weed control at 20 g/ha: 80%
DIGSA [16]; Digitaria sanguinalis, 504 h, dosage 20 g/ha
  pest or weed control at 20 g/ha: 90%
DIGSA [16]; Digitaria sanguinalis, 504 h, dosage 80 g/ha
  pest or weed control at 80 g/ha: 100%
VERPE [17]; Veronica persica, 504 h, dosage 80 g/ha
  pest or weed control at 80 g/ha: 90%
AMARE [18]; Amaranthus retroflexus, 504 h
  pest or weed control at 20 g/ha: 100%
